Columns and labels:
dopamine D2 receptors [1] = molecular target: T1, dopamine D2 receptors (Homo sapiens (Human), UniProt P14416); test: Affinity for dopamine D2 receptors, radioligand competition with [3H]-Methylspiperone; type: binding; conditions: 293T membrane transiently expressing D2
Experimental: The affinity of the compounds of the present disclosure for the dopamine D2 receptors was determined by the method of radioligand competition experiment. In the first step, a cell membrane component containing specific dopamine D2 receptors was prepared. A 10 cm culture dish was used for transfection with 10 ng of the dopamine D2 receptors and 40 μL of polyethylenimine (PEI hereafter). After 48 hours, the 10 cm culture dish was taken out from the cell culture incubator and the cultured cells had expressed the dopamine D2 receptors. A vacuum pump was used to suck off the culture medium, 3 mL of lysis buffer was added to each culture dish, and the cells were placed in a 4° C. cold room for 10 minutes. After the cells were detached, the cells were transferred to a 15 mL centrifuge tube and centrifuged at 1500 rpm for 5 minutes at 4° C., and the supernatant was discarded. The cell pellet was transferred to a tissue homogenizer, and 3 mL of lysis buffer was added and fully ground until the cells were broken. Then, cell suspension was equally aliquoted into several EP tubes, centrifuged at 12000 rpm for 5 minutes at 4° C., and the supernatant was discarded. The precipitate was the cell membrane component containing the dopamine D2 receptors. […] First, a standard binding buffer was added to the cell membrane component containing the dopamine D2 receptors, and the cell membrane was disrupted and resuspended with an electric tissue homogenizer. 30 μL of membrane protein suspension was added to each well of a 96-well plate. Then, 30 μL of different drugs were added to the 96-well plate sequentially from bottom to top to ensure that the final drug concentrations were 10^−5 M, 10^−6 M, 10^−7 M, 10^−8 M, 10^−9 M, and 0 M, with two replicates per treatment. Next, 30 μL of [3H]-Methylspiperone was added to each well of the 96-well plate. The plate was incubated for 2 hours at room temperature in the dark. Detection was conducted. The machine readout value reflected the amount of [3H]-Methylspiperone bound on the membrane, and after further data processing, the affinity Ki values of different compounds for the dopamine D2 receptors were obtained.

dopamine D2 receptors [2] = molecular target: T1, dopamine D2 receptors; test: Dopamine D2 receptor β-arrestin2 BRET (recruitment); type: cell-based; conditions: for EC50: D2 receptor, β-arrestin2 pathway, read-out: β-arrestin2 BRET EC50; for Emax: read-out: β-arrestin2 BRET (Emax %);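 on all read-outs here: cells co-expressing Rluc-fused D2 receptor, GRK2 and GFP2-fused β-arrestin2, BRET read with coelenterazine 400a after adding drug over a concentration series, in duplicate wells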
5-HT2A receptor [3] = molecular target: T2, 5-HT2A receptor (Homo sapiens (Human), UniProt P28223); test: 5-HT2A receptor β-arrestin2 BRET (recruitment); type: cell-based; conditions: 5-HT2A receptor, β-arrestin2 pathway;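 further: cells co-expressing Rluc-tagged 5-HT2A receptor, GRK2 and GFP2-tagged β-arrestin2, read by BRET with coelenterazine 400a (5 µM) across graded drug concentrations in duplicate, signal reflecting β-arrestin2 membrane recruitment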
Experimental: (§1) To examine the downstream G protein signaling pathway mediated by 5-HT2A receptors, on the first day, a 6 cm culture dish was used for transfection with 1 μg of 5-HT2A receptors, 1 μg of Gαq containing C-terminal seaweed luciferase (Gαq-Rluc), 1 μg of Gβ3, 1 μg of Gγ9 containing C-terminal green fluorescent protein (Gγ9-GFP), and 16 μL of PEI. At the same time, in order to examine the downstream β-arrestin2 signaling pathway mediated by 5-HT2A receptors, on the first day, a 6 cm culture dish was used for transfection with 500 μg of 5-HT2A receptors containing C-terminal seaweed luciferase (5-HT2A-Rluc), 500 μg of G protein-coupled receptor kinase 2 (GRK2), 2500 μg of β-arrestin2 containing N-terminal green fluorescent protein (GFP2-ARRB2), and 14 μL of PEI. The next day, the confluent cells of a 6 cm culture dish were digested and reseeded into a 96-well plate with 100 μL of culture medium was added to each well. On the third day, the drugs were added for test. The 96-well plate was taken out from the cell incubator to decant the culture medium, 40 μL of the substrate coelenterazine 400a (final concentration of 5 μM) was added to each well, and then 20 μL of different drugs were added sequentially from left to right to ensure that the final concentration of the drug decreased gradually from bottom to top, with two replicates per treatment. Finally, the prepared samples were loaded on machine for test. The machine readout value reflected the recruitment of β-arrestin2 to the membrane or the dissociation of G protein trimer. The former indicated the degree of activation of the β-arrestin2 signaling pathway downstream of the 5-HT2A receptors, and the latter indicated the degree of activation of the G protein signaling pathway downstream of the 5-HT2A receptors.

5-HT1A receptor [4] = molecular target: T3, 5-HT1A receptor (Homo sapiens (Human), UniProt P08908); test: 5-HT1A receptor Gαi1 BRET (G protein trimer dissociation); type: cell-based; conditions: 5-HT1A receptor, G protein pathway; for EC50: read-out: Gαi1 BRET EC50;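 on all read-outs here: cells transiently co-expressing 5-HT1A receptor, luciferase-tagged Gαi1, Gβ3 and GFP-tagged Gγ9, seeded in 96-well plates for BRET measurement of G protein signaling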
Experimental: (§2) The affinity of the compounds of the present disclosure for the 5-HTIA receptors was determined by the method of radioligand competition experiment. In the first step, a cell membrane component containing specific 5-HTIA receptor was prepared. A 10 cm culture dish was used for transfection with 10 ng of the 5-HTIA receptor and 40 μL of PEI. After 48 hours, the 10 cm culture dish was taken out from the cell incubator and the cultured cells had expressed the 5-HTIA receptor. A vacuum pump was used to suck off the culture medium, 3 mL of lysis buffer was added to each culture dish, and the cells were placed in a 4° C. cold room for 10 minutes. After the cells were detached, the cells were transferred to a 15 mL centrifuge tube and centrifuged at 1500 rpm for 5 minutes at 4° C., and the supernatant was discarded. The cell pellet was transferred to a tissue homogenizer, and 3 mL of lysis buffer was added and fully ground until the cells were broken. Then, cell suspension was equally aliquoted into several EP tubes, centrifuged at 12000 rpm for 5 minutes at 4° C., and the supernatant was discarded. The precipitate was the cell membrane component containing the 5-HT1A receptor. […] First, a standard binding buffer was added to the cell membrane component containing the 5-HT1A receptor, and the cell membrane was disrupted and resuspended with an electric tissue homogenizer. 30 μL of membrane protein suspension was added to each well of a 96-well plate. Then, 30 μL of different drugs were added to the 96-well plate sequentially from bottom to top to ensure that the final drug concentrations were 10^−5 M, 10^−6 M, 10^−7 M, 10^−8 M, 10^−9 M, and 0 M, with two replicates per treatment. Next, 30 μL of [3H]-LSD was added to each well of the 96-well plate. The plate was incubated for 2 hours at room temperature in the dark. Detection was conducted. The machine readout value reflected the amount of [3H]-LSD bound on the membrane, and after further data processing, the affinity Ki values of different compounds for the 5-HTIA receptor were obtained. To examine the downstream G protein signaling pathway mediated by 5-HTIA receptors, on the first day, a 6 cm culture dish was used for transfection with 1 μg of 5-HTIA receptors, 1 μg of Gαi1 containing C-terminal seaweed luciferase (Gαi1-Rluc), 1 μg of Gβ3, 1 μg of Gγ9 containing C-terminal green fluorescent protein (Gγ9-GFP), and 16 μL of PEI. The next day, the confluent cells of a 6 cm culture dish were digested and reseeded into a 96-well plate with 100 μL of culture medium was added to each well. On the third day, the drugs were added for test. The 96-well plate was taken out from the cell incubator to decant the culture medium, 40 μL of the substrate coelenterazine 400a (final concentration of 5 μM) was added to each well, and then 20 μL of different drugs were added sequentially from left to right to ensure that the final concentration of the drug decreased gradually from bottom to top, with two replicates per treatment. Finally, the prepared samples were loaded on machine for test. The machine readout value reflected the dissociation of G protein trimer, and thereby indicated the degree of activation of the G protein signaling pathway downstream of the 5-HTIA receptors.

dopamine D2 receptors [5] = molecular target: T1, dopamine D2 receptors; test: Dopamine D2 receptor Gαi1 BRET (G protein trimer dissociation); type: cell-based; conditions: for EC50: D2 receptor, G protein pathway, read-out: Gαi1 BRET EC50; for Emax: read-out: Gαi1 BRET (Emax %);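 on all read-outs here: transfected cells co-expressing D2 receptor, Gαi1-Rluc, Gβ3 and Gγ9-GFP, BRET with coelenterazine 400a at 5 µM read as G protein trimer dissociation, graded drug concentrations in duplicate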
5-HT2A receptor [6] = molecular target: T2, 5-HT2A receptor; test: Affinity for 5-HT2A receptors, radioligand competition with [3H]-ketanserin; type: binding; conditions: 293T membrane transiently expressing 5-HT2A
Experimental: The affinity of the compounds of the present disclosure for the 5-HT2A receptors was determined by the method of radioligand competition experiment. In the first step, a cell membrane component containing specific 5-HT2A receptor was prepared. A 10 cm dish was used for transfection with 10 ng of the 5-HT2A receptor and 40 μL of PEI. After 48 hours, the 10 cm dish was taken out from the cell incubator and the cultured cells had expressed the 5-HT2A receptor. A vacuum pump was used to suck off the culture medium, 3 mL of lysis buffer was added to each culture dish, and the cells were placed in a 4° C. cold room for 10 minutes. After the cells were detached, the cells were transferred to a 15 mL centrifuge tube and centrifuged at 1500 rpm for 5 minutes at 4° C., and the supernatant was discarded. The cell pellet was transferred to a tissue homogenizer, and 3 mL of lysis buffer was added and fully ground until the cells were broken. Then, cell suspension was equally aliquoted into several EP tubes, centrifuged at 12000 rpm for 5 minutes at 4° C., and the supernatant was discarded. The precipitate was the cell membrane component containing the 5-HT2A receptor. […] First, a standard binding buffer was added to the cell membrane component containing the 5-HT2A receptor, and the cell membrane was disrupted and resuspended with an electric tissue homogenizer. 30 μL of membrane protein suspension was added to each well of a 96-well plate. Then, 30 μL of different drugs were added to the 96-well plate sequentially from bottom to top to ensure that the final drug concentrations were 10^−5 M, 10^−6 M, 10^−7 M, 10^−8 M, 10^−9 M, and 0 M, with two replicates per treatment. Next, 30 μL of [3H]-ketanserin was added to each well of the 96-well plate. The plate was incubated for 2 hours at room temperature in the dark. Detection was conducted. The machine readout value reflected the amount of [3H]-ketanserin bound on the membrane, and after further data processing, the affinity Ki values of different compounds for the 5-HT2A receptor were obtained.

5-HT1A receptor [7] = molecular target: T3, 5-HT1A receptor; test: Affinity for 5-HT1A receptors, radioligand competition with [3H]-LSD; type: binding; conditions: 293T membrane transiently expressing 5-HT1A; [3H]-LSD; read-out: 5-HT1A affinity Ki;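 further: membranes from cells transiently transfected with 5-HT1A receptor, bound [3H]-LSD displaced by compound at 10^-9 to 10^-5 M, 2 h incubation at room temperature in the dark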
Experimental: as §2

5-HT2A receptor [8] = molecular target: T2, 5-HT2A receptor; test: 5-HT2A receptor Gαq BRET (G protein trimer dissociation); type: cell-based; conditions: for EC50: 5-HT2A receptor, G protein pathway, read-out: Gαq BRET EC50; for Emax: read-out: Gαq BRET (Emax %);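 on all read-outs here: cells transfected with 5-HT2A receptor, Gαq-Rluc, Gβ3 and Gγ9-GFP, BRET read with coelenterazine 400a (5 µM) across a compound dilution series in duplicate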
Experimental: as §1

T2 sequence (P28223 whole entry): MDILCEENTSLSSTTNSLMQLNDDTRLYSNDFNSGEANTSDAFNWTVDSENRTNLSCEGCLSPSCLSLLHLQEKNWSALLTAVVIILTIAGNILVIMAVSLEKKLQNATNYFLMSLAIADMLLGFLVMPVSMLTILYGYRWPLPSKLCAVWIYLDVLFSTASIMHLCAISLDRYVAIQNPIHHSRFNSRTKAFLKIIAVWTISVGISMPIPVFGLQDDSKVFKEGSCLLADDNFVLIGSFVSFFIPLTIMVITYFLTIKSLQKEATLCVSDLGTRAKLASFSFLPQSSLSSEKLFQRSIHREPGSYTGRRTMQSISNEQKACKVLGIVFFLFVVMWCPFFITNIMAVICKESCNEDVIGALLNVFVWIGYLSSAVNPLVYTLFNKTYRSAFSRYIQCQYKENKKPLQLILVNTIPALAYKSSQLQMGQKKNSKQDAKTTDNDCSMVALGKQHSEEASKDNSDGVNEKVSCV
T1 sequence (P14416 whole entry, the tested form may be a part): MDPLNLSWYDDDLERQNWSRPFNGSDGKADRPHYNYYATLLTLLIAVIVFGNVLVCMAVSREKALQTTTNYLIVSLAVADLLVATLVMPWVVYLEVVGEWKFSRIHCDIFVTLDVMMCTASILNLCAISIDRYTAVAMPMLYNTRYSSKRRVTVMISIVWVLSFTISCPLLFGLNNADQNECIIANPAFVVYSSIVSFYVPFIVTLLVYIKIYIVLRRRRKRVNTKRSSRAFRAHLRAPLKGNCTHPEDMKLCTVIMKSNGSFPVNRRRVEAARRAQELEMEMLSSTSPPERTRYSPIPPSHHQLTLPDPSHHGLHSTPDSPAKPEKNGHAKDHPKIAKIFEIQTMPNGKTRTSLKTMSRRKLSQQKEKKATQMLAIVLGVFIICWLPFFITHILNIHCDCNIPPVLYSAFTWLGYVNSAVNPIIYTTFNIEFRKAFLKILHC
T3 sequence (P08908 whole entry): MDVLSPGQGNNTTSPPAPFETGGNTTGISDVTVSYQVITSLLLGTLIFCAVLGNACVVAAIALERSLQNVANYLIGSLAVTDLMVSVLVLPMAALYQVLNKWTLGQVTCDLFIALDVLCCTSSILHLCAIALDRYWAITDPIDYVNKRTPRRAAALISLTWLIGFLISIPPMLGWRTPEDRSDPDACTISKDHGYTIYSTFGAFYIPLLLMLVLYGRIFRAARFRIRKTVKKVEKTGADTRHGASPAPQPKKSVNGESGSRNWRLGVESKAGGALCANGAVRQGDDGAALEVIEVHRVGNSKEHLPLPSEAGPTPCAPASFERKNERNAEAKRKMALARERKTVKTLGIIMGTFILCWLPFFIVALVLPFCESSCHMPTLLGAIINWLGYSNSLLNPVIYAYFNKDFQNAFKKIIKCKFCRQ

Compound | Ki (dopamine D2 receptors [1]) | EC50 (dopamine D2 receptors [2]) | Emax (dopamine D2 receptors [2]) | Emax (5-HT2A receptor [3]) | EC50 (5-HT2A receptor [3]; read-out: β-arrestin2 BRET EC50) | Emax (5-HT1A receptor [4]) | EC50 (5-HT1A receptor [4]) | EC50 (dopamine D2 receptors [5]) | Emax (dopamine D2 receptors [5]) | Ki (5-HT2A receptor [6]) | Ki (5-HT1A receptor [7]) | EC50 (5-HT2A receptor [8]) | Emax (5-HT2A receptor [8])
c1ccc(OCCN2CCN3c4cccc5scc(c45)CC3C2)cc1 (centres unmarked) [Compound I-15, 8-(2-Phenoxyethyl)-6,6a,7,8,9,10-Hexahydropyrazino[1,2-a]Thieno [4,3,2-De]Quinoline] | 5500 nM | 164 nM | 10.5% | 10% | 1770 nM | 57% | 5260 nM | 334 nM | 18.6% | 1710 nM | 840 nM |  | 
c1cc2c3c(csc3c1)CC1CN(CCCOc3ccc4c(c3)OCO4)CCN21 (centres unmarked) [Compound I-16, 8-(3-(Benzo[d][1,3]Dioxol-5-Yloxy) Propyl)-6,6a, 7,8,9,10-Hexahydropyrazino[1,2-a]Thieno [4,3,2-De]Quinoline] | 1550 nM | 289 nM | 37.7% |  |  | 88% | 2720 nM | 44.8 nM | 57.9% | > 10000 nM | 560 nM | 340 nM | 19.5%
O=C1CCc2ccc(OCCCN3CCN4c5cccc6scc(c56)CC4C3)cc2N1 (centres unmarked) [Compound I-18, 7-(3-(6a,7,9,10-Tetrahydropyrazino[1,2-a]Thieno [4,3,2-De]Quinolin-8 (6H)-Yl) Propoxy)-3,4-Dihydroquinolin-2 (1H)-One] | 270 nM | 279 nM | 71.9% |  |  | 82% | 696 nM | 33.9 nM | 91.3% | 160 nM | 10 nM |  | 
O=c1ccc2ccc(OCCCCN3CCN4c5cccc6scc(c56)CC4C3)cc2[nH]1 (centres unmarked) [Compound I-19, 7-(4-(6a,7,9,10-Tetrahydropyrazino[1,2-a]Thieno [4,3,2-De]Quinolin-8 (6H)-Yl) Butoxy) Quinolin-2 (1H)-One] | 10 nM | 43.9 nM | 64.5% |  |  | 81% | 3670 nM | 8.26 nM | 74.6% | 1410 nM | 30 nM | 1440 nM | 15.6%
O=C1CCc2ccc(OCCCCN3CCN4c5cccc6scc(c56)CC4C3)cc2N1 (centres unmarked) [Compound I-20, 7-(4-(6a,7,9,10-Tetrahydropyrazino[1,2-a]Thieno [4,3,2-De]Quinolin-8 (6H)-Yl) Butoxy)-3,4-Dihydroquinolin-2 (1H)-One] | 30 nM | 464 nM | 35.6% |  |  | 72% | 1540 nM | 107 nM | 64% | 640 nM | 160 nM | 5590 nM | 17.8%
c1cc2c3c(csc3c1)CC1CN(CCCCOc3ccc4scnc4c3)CCN21 (centres unmarked) [Compound I-21, 8-(4-(Benzo[d]Thiazol-5-Yloxy)Butyl)-6,6a,7,8,9,10-Hexahydropyrazino[1,2-a]Thieno [4,3,2-De]Quinoline] | 7180 nM | 233 nM | 32.6% |  |  | 68% | 8180 nM | 146 nM | 54% | > 10000 nM | 3220 nM | 4380 nM | 16.6%
O=C1c2ccccc2CCCN1CCCCN1CCN2c3cccc4scc(c34)CC2C1 (centres unmarked) [Compound I-25, 2-(4-(6a,7,9,10-Tetrahydropyrazino[1,2-a]Thieno [4,3,2-De]Quinolin-8 (6H)-Yl)Butyl)-2,3,4,5-Tetrahydro-1H-Benzo[c]Azepin-1-One] | 100 nM | 61.5 nM | 49.2% |  |  | 82% | 1320 nM | 27.8 nM | 67.9% | 300 nM | 770 nM | 969 nM | 17.8%
O=C1[C@H]2CCCC[C@H]2C(=O)N1CCCCN1CCN2c3cccc4scc(c34)CC2C1 (some centres unmarked) [Compound I-26] |  | 44.8 nM | 19.8% |  |  | 88% | 489 nM | 573 nM | 47.9% |  | 400 nM | 339 nM | 26%
O=C(N[C@H]1CC[C@H](CCN2CCN3c4cccc5scc(c45)CC3C2)CC1)N1CCCC1 (stereo partly drawn) [Compound I-28, N-(4-(2-(6a,7,9,10-Tetrahydropyrazino[1,2-a]Thieno [4,3,2-De]Quinolin-8 (6H)-Yl)Ethyl) Trans-Cyclohexyl) Pyrrolidine-1-Carboxamide] | 80 nM | 38.7 nM | 34.2% |  |  | 59% | 142 nM | 18 nM | 30.7% | 520 nM | 50 nM | 184 nM | 12.5%

From patent US20240383913A1, “THIOPHENE RING COMPOUND, PREPARATION METHOD THEREFOR AND APPLICATION THEREOF” (CENTER FOR EXCELLENCE IN MOLECULAR CELL SCIENCE, CHINESE …, priority 2021, published 2024)
